Where a name gives a salt, the structure may show the parent alone.
Compound | melting point [°C]
CN(C)CCCOc1ccc(-c2nnc(CSCCOc3ccccc3)s2)cc1 [Example 59, Dimethyl-(3-{4-[5-(2-phenoxyethylsulfanylmethyl)-[1,3,4]thiadiazol-2-yl]-phenoxy}-propyl)-amine] | 72 to 73
CN(C)CCCCCOc1ccc(-c2nnc(CSCCOc3ccccc3)o2)cc1 [Example 69, dimethyl-(5-{4-[5-(2-phenoxy-ethylsulfanylmethyl)-[1,3,4]oxadiazol-2-yl]-phenoxy}-pentyl)-amine] | 51 to 54
c1ccc(OCCSCc2nnc(-c3ccc(OCc4cccnc4)cc3)o2)cc1 [Example 100, 3-{4-[5-(2-phenoxy-ethylsulfanylmethyl)-[1,3,4]oxadiazol-2-yl]-phenoxymethyl}-pyridine] | 111 to 112
c1csc(SCc2nnc(-c3ccc(OCCCN4CCCCC4)cc3)o2)n1 (as salt: hydrochloride) [Example 226, 1-(3-{4-[5-(thiazol-2-ylsulfanylmethyl)-[1,3,4]oxadiazol-2-yl]phenoxy}propyl)piperdine] | 174 to 176
CN(C)CCCOc1ccc(-c2nnc(-c3ccc(-c4ccccc4)cc3)o2)cc1 [Example 58, {3-[4-(5-biphenyl-4-yl-[1,3,4]oxadiazol-2-yl)-phenoxy]-propyl}-dimethylamine] | 130 to 132
c1ccc(OCCSCc2nnc(-c3ccc(OCCCN4CCCCC4)cc3)o2)cc1 [Example 75, 1-(3-{4-[5-(2-phenoxy-ethylsulfanylmethyl)-[1,3,4]oxadiazol-2-yl]-phenoxy}-propyl)-piperidine] | 65
CCN(CC)CCCOc1ccc(-c2nnc(CSCCOc3ccccc3)o2)cc1 [Example 78, diethyl-(3-{4-[5-(2-phenoxy-ethylsulfanylmethyl)-[1,3,4]oxadiazol-2-yl]-phenoxy}-propyl)-amine] | 27 to 31
CN(C)CCCOc1ccc(-c2nnc(Cc3ccc(Oc4ccccc4)cc3)o2)cc1.O=C(O)C(=O)O [Example 269, Dimethyl-(3-{4-[5-(4-phenoxy-benzyl)-[1,3,4]oxadiazol-2-yl]-phenoxy}-propyl)-amine, oxalic acid salt] | 156 to 158
CN(C)CCCCCCNC(=O)c1ccc(-c2nnc(CSCCOc3ccccc3)o2)cc1 [Example 57, N-(6-dimethylaminohexyl)-4-[5-(2-phenoxyethylsulfanylmethyl)-[1,3,4]oxadiazol-2-yl]-benzamide] | 86 to 93
O=C(Nc1ccc(-c2nnc(CSCCOc3ccccc3)o2)cc1)N1CCCC1 [Example 103, pyrrolidine-1-carboxylic acid {4-[5-(2-phenoxy-ethylsulfanylmethyl)-[1,3,4]oxadiazol-2-yl]-phenyl}-amide] | 184 to 185
CN(C)CCCOc1ccc(-c2nnc(CSCCOc3ccc4ccccc4c3)o2)cc1 [Example 279, [3-(4-{5-[2-(2-naphthoxy)-ethylsulfanylmethyl]-[1,3,4]oxadiazol-2-yl}-phenoxy)-propyl]-dimethyl-amine] | 97 to 98
CCN(CC)CCOc1ccc(-c2nnc(CSCCOc3ccccc3)o2)cc1 [Example 85, diethyl-(2-{4-[5-(2-phenoxy-ethylsulfanylmethyl)-[1,3,4]oxadiazol-2-yl]-phenoxy}-ethyl)-amine] | 32 to 35
CN(C)CCCOc1ccc(-c2nnc(CSCCOc3ccccc3)o2)cc1F.O=C(O)/C=C\C(=O)O [Example 287, (3-{2-fluoro-4-[5-(2-phenoxy-ethylsulfanylmethyl)-[1,3,4]oxadiazol-2-yl]-phenoxy}-propyl)-dimethyl-amine; maleic acid salt] | 70 to 72
O=C1CCN(CCCOc2ccc(-c3nnc(CSCCOc4ccccc4)o3)cc2)CC1 [Example 260, 1-(3-{4-[5-(2-Phenoxy-ethylsulfanylmethyl)-[1,3,4]oxadiazol-2-yl]-phenoxy}-propyl)-piperidin-4-one] | 55 to 57
CN(C)CCCOc1ccc(-c2nnc(CCc3ccc4ccccc4c3)o2)cc1 (as salt: hydrochloride) [Example 205, Dimethyl-{3-[4-(5-naphthalene-2-ylethyl-[1,3,4]oxadiazol-2-yl)phenoxy]propyl}amine] | 208 to 210
CN(C)CCCNC(=O)c1ccc(-c2nnc(CSCCCCOc3ccccc3)o2)cc1 [Example 48, N-(3-dimethylaminopropyl)-4-[5-(4-phenoxybutylsulfanylmethyl)-[1,3,4]oxadiazol-2-yl]-benzamide] | 87 to 93
C(=C\c1ccc(-c2cnc(CSCCOc3ccccc3)o2)cc1)/CN1CCCC1 [Example 268, 2-(2-phenoxy-ethylsulfanylmethyl)-5-[4-(3-pyrrolidin-1-yl-propenyl)-phenyl]-oxazole] | 73 to 75
c1ccc(OCCSCc2ncc(-c3ccc(OCCCN4CCCCCC4)cc3)o2)cc1 [Example 266, 1-(3-{4-[2-(2-phenoxy-ethylsulfanylmethyl)-oxazol-5-yl]-phenoxy}-propyl)-azepane] | 32 to 35

Second part, the compound after the results:

melting point [°C] | Compound
92.5 to 93.5 | CN(C)CCCOc1ccc(-c2nnc(CSCCOc3ccc(OC(F)(F)F)cc3)o2)cc1 [Example 274, [3-(4-{5-[2-(4-trifluoromethoxy-phenoxy)-ethylsulfanylmethyl]-[1,3,4]oxadiazol-2-yl}-phenoxy)-propyl]-dimethyl-amine]
77 to 80 | CN(C)CCCNC(=O)c1ccc(-c2nnc(CSCCCOc3ccccc3)o2)cc1 [Example 47, N-(3-dimethylaminopropyl)-4-[5-(3-phenoxypropylsulfanylmethyl)-[1,3,4]oxadiazol-2-yl]-benzamide]
83 to 89 | CN(C)CCCCCNC(=O)c1ccc(-c2nnc(CSCCOc3ccccc3)o2)cc1 [Example 56, N-(5-dimethylaminopentyl)-4-[5-(2-phenoxyethylsulfanylmethyl)-[1,3,4]oxadiazol-2-yl]-benzamide]
35 to 38 | CCN(CC)CCCCOc1ccc(-c2nnc(CSCCOc3ccccc3)o2)cc1 [Example 93, diethyl-(4-{4-[5-(2-phenoxy-ethylsulfanylmethyl)-[1,3,4]oxadiazol-2-yl]-phenoxy}-butyl)-amine]
97 to 98 | CN(C)CCNc1ccc(-c2nnc(CSCCOc3ccccc3)o2)cn1 [Example 258, N,N-dimethyl-M-{5-[5-(2-phenoxy-ethylsulfanylmethyl)-[1,3,4]oxadiazol-2-yl]-pyridin-2-yl}-ethane-1,2-diamine]
60 | c1ccc(OCCSCc2nnc(-c3ccc(OCCCN4CCC4)cc3)o2)cc1 [Example 263, 2-[4-(3-azetidin-1-yl-propoxy)-phenyl]-5-(2-phenoxy-ethylsulfanylmethyl)-[1,3,4]oxadiazole]
97.5 to 99 | COCCSCc1nnc(-c2ccc(OCCCN(C)C)cc2)o1 (as salt: maleate) [Example 281, (3-{4-[5-(2-methoxy-ethylsulfanylmethyl)-[1,3,4]oxadiazol-2-yl]-phenoxy}-propyl)-dimethyl-amine]
101 to 102 | CN(C)CCCOc1ccc(-c2nnc(CSCCOc3cccc4ccccc34)o2)cc1 [Example 278, [3-(4-{5-[2-(1-naphthoxy)-ethylsulfanylmethyl]-[1,3,4]oxadiazol-2-yl}-phenoxy)-propyl]-dimethyl-amine]
140 to 141 | CN(C)CCCNC(=O)c1ccc(-c2nnc(CSCCOc3ccc(Cl)cc3Cl)o2)cc1 [Example 44, 4-{5-[2-(2,4-dichlorophenoxy)-ethylsulfanylmethyl]-[1,3,4]-oxadiazol-2-yl}-N-(3-dimethylaminopropyl)-benzamide]
70 | CN(C)CCCOc1ccc(-c2nnc(CSCCOc3ccccc3)o2)cc1 [Example 67, dimethyl-(3-{4-[5-(2-phenoxy-ethylsulfanylmethyl)-[1,3,4]oxadiazol-2-yl]-phenoxy}-propyl)-amine]
80 to 85 | CN(C)CCNC(=O)c1ccccc1-c1nnc(CSCCOc2ccccc2)o1 [Example 64, N-(2-dimethylamino-ethyl)-2-[5-(2-phenoxy-ethylsulfanylmethyl)-[1,3,4]oxadiazol-2-yl]-benzamide]
88 to 90 | CN(C)CCCNC(=O)c1cccc(-c2nnc(CSCCOc3ccccc3)o2)c1 [Example 62, N-(3-dimethylamino-propyl)-3-[5-(2-phenoxy-ethylsulfanylmethyl)-[1,3,4]oxadiazol-2-yl]-benzamide]
76 to 79 | c1ccc2oc(Cc3nnc(-c4ccc(OCCCN5CCCCC5)cc4)o3)cc2c1 [Example 270, 1-{3-[4-(5-Benzofuran-2-yl-methyl-[1,3,4]oxadiazol-2-yl)-phenoxy]-propyl}-piperidine]
89 to 94 | O=C(O)C(=O)O.c1ccc(OCCSCc2ncc(-c3ccc(OCCCN4CCCCCCC4)cc3)o2)cc1 [Example 267, 1-(3-{4-[2-(2-phenoxy-ethylsulfanylmethyl)-oxazol-5-yl]-phenoxy}-propyl)-azocane oxalic acid salt]
46 to 50 | CN1CCCC1CCOc1ccc(-c2nnc(CSCCOc3ccccc3)o2)cc1 (stereo not shown) [Example 96, 2-{4-[2-(1-methyl-pyrrolidin-2-yl)-ethoxy]-phenyl}-5-(2-phenoxy-ethylsulfanylmethyl)-[1,3,4]oxadiazole]
111 to 115 | O=C(NCCN1CCCC1)Nc1ccc(-c2nnc(CSCCOc3ccccc3)o2)cc1.O=C(O)C(=O)O [Example 106, 1-{4-[5-(2-phenoxy-ethylsulfanylmethyl)-[1,3,4]oxadiazol-2-yl]-phenyl}-3-(2-pyrrolidin-1-yl-ethyl)-urea oxalate]
62 to 65 | CN(C)CCCCNC(=O)c1ccccc1-c1nnc(CSCCOc2ccccc2)o1 [Example 63, N-(4-dimethylamino-butyl)-2-[5-(2-phenoxy-ethylsulfanylmethyl)-[1,3,4]oxadiazol-2-yl]-benzamide]
> 220 | NC(=O)Nc1ccc(-c2nnc(CSCCOc3ccccc3)o2)cc1 [Example 101, {4-[5-(2-phenoxy-ethylsulfanylmethyl)-[1,3,4]oxadiazol-2-yl]-phenyl}-urea]
84 to 87 | O=C(NCCN1CCCCC1)Nc1ccc(-c2cnc(CSCCOc3ccccc3)o2)cc1 [Example 252]

From patent US7229987B2, “Multicyclic compounds for use as melanin concentrating hormone antagonists in the treatment of obesity and diabetes” (Eli Lilly and Company, priority 2002, dated 2007)
